pIC50: −log10 of the molar value. Bridge positions count the residues as written; N and C are the ends. Square brackets hold non-standard residues; d marks the D form. Peptide text beside a SMILES is read from it. Nle = CCCC[C@H](N)C(=O)O

Among the data in US11780893B2, “Kv1.3 blockers” (Zealand Pharma A/S, priority 2019, dated 2023) are IC50 values, retold here.

T1 sequence (P22001 whole entry): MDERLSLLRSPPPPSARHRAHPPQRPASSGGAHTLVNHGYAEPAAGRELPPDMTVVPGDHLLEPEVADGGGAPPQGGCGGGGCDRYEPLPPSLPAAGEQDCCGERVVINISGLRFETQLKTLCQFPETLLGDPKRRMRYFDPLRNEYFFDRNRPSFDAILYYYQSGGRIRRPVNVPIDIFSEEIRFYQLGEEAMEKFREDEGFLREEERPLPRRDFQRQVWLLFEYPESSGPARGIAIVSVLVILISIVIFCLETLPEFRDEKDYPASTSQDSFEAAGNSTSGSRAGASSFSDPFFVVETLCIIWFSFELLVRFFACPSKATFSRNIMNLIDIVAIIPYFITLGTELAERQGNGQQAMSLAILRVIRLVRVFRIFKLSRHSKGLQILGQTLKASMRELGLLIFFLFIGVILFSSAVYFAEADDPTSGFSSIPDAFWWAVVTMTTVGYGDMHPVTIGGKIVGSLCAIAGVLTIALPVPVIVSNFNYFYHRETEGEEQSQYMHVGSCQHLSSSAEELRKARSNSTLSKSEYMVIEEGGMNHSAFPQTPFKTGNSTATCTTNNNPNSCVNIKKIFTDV

The assay has as its target T1, human Kv1.3 voltage-gated K+ channel (Homo sapiens, UniProt P22001).
T1 construct: host or cells: CHO-DUKX
As to the kind of experiment: cell-based. Particulars: inhibition of thallium flux, CHO-DUKX cells with human Kv1.3; read-out: IC50.
Take `CCCC[C@@H]1NC(=O)[C@@H]2CSSC[C@H](NC(=O)[C@H](CCCNC(=N)N)NC(=O)[C@H](CCCC)NC(=O)[C@H](CCC(=O)O)NC(=O)[C@@H](N)CCCC)C(=O)N[C@@H](CO)C(=O)N[C@@H](C)C(=O)N[C@@H](CO)C(=O)N[C@@H](C(C)C)C(=O)N[C@@H](CCC(=O)O)C(=O)N[C@H]3CSSC[C@H](NC(=O)[C@H](CCCCN)NC(=O)[C@H](CCCCN)NC(=O)[C@H](CC(N)=O)NC1=O)C(=O)N[C@@H](CCCCN)C(=O)N[C@H](C(=O)N[C@@H](Cc1ccc(O)cc1)C(=O)N1CCC[C@H]1C(=O)N[C@@H](CCCNC(=N)N)C(=O)O)CSSC[C@H](NC(=O)[C@H](CCCCN)NC(=O)[C@H](CCC(N)=O)NC(=O)[C@H](CCCCN)NC3=O)C(=O)N[C@@H](CC(C)C)C(=O)N[C@@H](C)C(=O)N[C@@H](C)C(=O)N[C@@H]([C@@H](C)CC)C(=O)NCC(=O)N[C@@H](CO)C(=O)N[C@@H]([C@@H](C)CC)C(=O)N[C@@H](Cc1ccccc1)C(=O)NCC(=O)N[C@@H](CCCCN)C(=O)N2` [Compound 121] (H-[Nle]E[Nle]RCSASVECKQKCLAAIGSIFGKC[Nle]NKKCKCYPR-OH; disulfide 5-26, 11-31, 15-33): the negative logarithm of the IC50 (pIC50) was 9.35.

As to `CCCC[C@H](NC(=O)[C@H](CC(=O)O)NC(=O)[C@H](CCCC)NC(=O)[C@@H](N)CO)C(=O)N[C@@H](CCCNC(=N)N)C(=O)N[C@H]1CSSC[C@@H]2NC(=O)[C@H](CCCCN)NC(=O)CNC(=O)[C@H](Cc3ccccc3)NC(=O)[C@H]([C@@H](C)CC)NC(=O)[C@H](CO)NC(=O)CNC(=O)[C@H]([C@@H](C)CC)NC(=O)[C@H](C)NC(=O)[C@H](CCCCN)NC(=O)[C@H](CC(C)C)NC(=O)[C@@H]3CSSC[C@@H](C(=O)N[C@@H](Cc4ccc(O)cc4)C(=O)N4CCC[C@H]4C(=O)N[C@@H](CCCNC(=N)N)C(N)=O)NC(=O)[C@H](CCCCN)NC(=O)[C@H](CSSC[C@H](NC(=O)[C@H](CCC(=O)O)NC(=O)[C@H](C(C)C)NC(=O)[C@H](CC(C)C)NC(=O)[C@H](C)NC(=O)[C@H](CO)NC1=O)C(=O)N[C@@H](CCCCN)C(=O)N[C@@H](CCC(N)=O)C(=O)N[C@@H](CCCCN)C(=O)N3)NC(=O)[C@H](CCCCN)NC(=O)[C@H](CCCCN)NC(=O)[C@H](CC(N)=O)NC(=O)[C@H](CCSC)NC2=O` [Compound 89] (H-S[Nle]D[Nle]RCSALVECKQKCLKAIGSIFGKCMNKKCKCYPR-NH2; disulfide 6-27, 12-32, 16-34), the pIC50 is 8.57. Take `CCCC[C@H](NC(=O)[C@H](CC(=O)O)NC(=O)[C@H](CCCC)NC(=O)[C@@H](N)CO)C(=O)N[C@@H](CCCNC(=N)N)C(=O)N[C@H]1CSSC[C@@H]2NC(=O)[C@H](CCCCN)NC(=O)CNC(=O)[C@H](Cc3ccccc3)NC(=O)[C@H]([C@@H](C)CC)NC(=O)[C@H](CO)NC(=O)CNC(=O)[C@H]([C@@H](C)CC)NC(=O)[C@H](C)NC(=O)[C@H](C)NC(=O)[C@H](CC(C)C)NC(=O)[C@@H]3CSSC[C@@H](C(=O)N[C@@H](Cc4ccc(O)cc4)C(=O)N4CCC[C@H]4C(=O)N[C@@H](CCCNC(=N)N)C(N)=O)NC(=O)[C@H](CCCCN)NC(=O)[C@H](CSSC[C@H](NC(=O)[C@H](CCC(=O)O)NC(=O)[C@H](C(C)C)NC(=O)[C@H](CO)NC(=O)[C@H](C)NC(=O)[C@H](CO)NC1=O)C(=O)N[C@@H](C)C(=O)N[C@@H](CCC(N)=O)C(=O)N[C@@H](CC(C)C)C(=O)N3)NC(=O)[C@H](CCCCN)NC(=O)[C@H](CCCCN)NC(=O)[C@H](CC(N)=O)NC(=O)[C@H](CCSC)NC2=O` [Compound 81] (H-S[Nle]D[Nle]RCSASVECAQLCLAAIGSIFGKCMNKKCKCYPR-NH2; disulfide 6-27, 12-32, 16-34): the pIC50 was 9.66. In the case of `CCCC[C@H](NC(=O)[C@@H]1CCCN1)C(=O)N[C@@H](CCC(=O)O)C(=O)N[C@@H](CCCC)C(=O)N[C@@H](CCCNC(=N)N)C(=O)N[C@H]1CSSC[C@@H]2NC(=O)[C@H](CCCCN)NC(=O)CNC(=O)[C@H](Cc3ccccc3)NC(=O)[C@H]([C@@H](C)CC)NC(=O)[C@H](CO)NC(=O)CNC(=O)[C@H]([C@@H](C)CC)NC(=O)[C@H](C)NC(=O)[C@H](C)NC(=O)[C@H](CC(C)C)NC(=O)[C@@H]3CSSC[C@@H](C(=O)N[C@@H](Cc4ccc(O)cc4)C(=O)N4CCC[C@H]4C(=O)N[C@@H](CCCNC(=N)N)C(=O)O)NC(=O)[C@H](CCCCN)NC(=O)[C@H](CSSC[C@H](NC(=O)[C@H](CCC(=O)O)NC(=O)[C@H](C(C)C)NC(=O)[C@H](Cc4ccccc4)NC(=O)[C@H](C)NC(=O)[C@H](CO)NC1=O)C(=O)N[C@@H](CCCCN)C(=O)N[C@@H](CCC(N)=O)C(=O)N[C@@H](CCCCN)C(=O)N3)NC(=O)[C@H](CCCCN)NC(=O)[C@H](CCCCN)NC(=O)[C@H](CC(N)=O)NC(=O)[C@H](CCCC)NC2=O` [Compound 145] (H-P[Nle]E[Nle]RCSAFVECKQKCLAAIGSIFGKC[Nle]NKKCKCYPR-OH; disulfide 6-27, 12-32, 16-34) it was 8.08; in that of `CC[C@H](C)[C@@H]1NC(=O)[C@H](C)NC(=O)[C@H](CCCCN)NC(=O)[C@H](CC(C)C)NC(=O)[C@@H]2CSSC[C@@H](C(=O)N[C@@H](Cc3ccc(O)cc3)C(=O)N3CCC[C@H]3C(=O)N[C@@H](CCCNC(=N)N)C(=O)O)NC(=O)[C@H](CCCCN)NC(=O)[C@@H]3CSSC[C@H](NC(=O)[C@H](CCC(=O)O)NC(=O)[C@H](C(C)C)NC(=O)[C@H](CO)NC(=O)[C@H](C)NC(=O)[C@H](CO)NC(=O)[C@@H](NC(=O)[C@H](CCCNC(=N)N)NC(=O)[C@@H](NC(=O)[C@H](CC(=O)O)NC(=O)[C@H](CCSC)NC(=O)[C@@H](N)CC(N)=O)C(C)C)CSSC[C@H](NC(=O)[C@H](CCCCN)NC(=O)CNC(=O)[C@H](Cc4ccccc4)NC(=O)[C@H]([C@@H](C)CC)NC(=O)[C@H](CO)NC(=O)CNC1=O)C(=O)N[C@@H](CCSC)C(=O)N[C@@H](CC(N)=O)C(=O)N[C@@H](CCCCN)C(=O)N[C@@H](CCCCN)C(=O)N3)C(=O)N[C@@H](CCCCN)C(=O)N[C@@H](CCC(N)=O)C(=O)N[C@@H](CCCCN)C(=O)N2` [Compound 9] (H-NMDVRCSASVECKQKCLKAIGSIFGKCMNKKCKCYPR-OH; disulfide 6-27, 12-32, 16-34), 9.28.

For `CC[C@H](C)[C@@H]1NC(=O)[C@H](CCCCN)NC(=O)[C@H](CC(C)C)NC(=O)[C@@H]2CSSC[C@@H](C(=O)N[C@@H](Cc3ccc(O)cc3)C(=O)N3CCC[C@H]3C(=O)N[C@@H](CCCNC(=N)N)C(N)=O)NC(=O)[C@H](CCCCN)NC(=O)[C@@H]3CSSC[C@H](NC(=O)[C@H](CCC(=O)O)NC(=O)[C@H](C(C)C)NC(=O)[C@H](CO)NC(=O)[C@H](C)NC(=O)[C@H](CO)NC(=O)[C@@H](NC(=O)[C@H](CCCNC(=N)N)NC(=O)[C@H](CCSC)NC(=O)[C@H](CC(=O)O)NC(=O)[C@H](CCSC)NC(=O)[C@@H](N)CC(N)=O)CSSC[C@H](NC(=O)[C@H](CCCCN)NC(=O)CNC(=O)[C@H](Cc4ccccc4)NC(=O)[C@H]([C@@H](C)CC)NC(=O)[C@H](CO)NC(=O)CNC1=O)C(=O)N[C@@H](CCSC)C(=O)N[C@@H](CC(N)=O)C(=O)N[C@@H](CCCCN)C(=O)N[C@@H](CCCCN)C(=O)N3)C(=O)N[C@@H](CCCCN)C(=O)N[C@@H](CCC(N)=O)C(=O)N[C@@H](CCCCN)C(=O)N2` [Compound 57] (H-NMDMRCSASVECKQKCLKIGSIFGKCMNKKCKCYPR-NH2; disulfide 6-26, 12-31, 16-33), the pIC50 was 9.96. With `CCCC[C@H](NC(=O)[C@@H]1CCCN1)C(=O)N[C@@H](CCC(=O)O)C(=O)N[C@@H](CCCC)C(=O)N[C@@H](CCCNC(=N)N)C(=O)N[C@H]1CSSC[C@@H]2NC(=O)[C@H](CCCCN)NC(=O)CNC(=O)[C@H](Cc3ccccc3)NC(=O)[C@H]([C@@H](C)CC)NC(=O)[C@H](CO)NC(=O)CNC(=O)[C@H]([C@@H](C)CC)NC(=O)[C@H](C)NC(=O)[C@H](C)NC(=O)[C@H](CC(C)C)NC(=O)[C@@H]3CSSC[C@@H](C(=O)N[C@@H](Cc4ccc(O)cc4)C(=O)N4CCC[C@H]4C(=O)N[C@@H](CCCNC(=N)N)C(=O)O)NC(=O)[C@H](CCCCN)NC(=O)[C@H](CSSC[C@H](NC(=O)[C@H](CCC(=O)O)NC(=O)[C@H](C(C)C)NC(=O)[C@H](CO)NC(=O)[C@H](C)NC(=O)[C@H](CO)NC1=O)C(=O)N[C@@H](CCCCN)C(=O)N[C@@H](CCC(N)=O)C(=O)N1CCC[C@H]1C(=O)N3)NC(=O)[C@H](CCCCN)NC(=O)[C@H](CCCCN)NC(=O)[C@H](CC(N)=O)NC(=O)[C@H](CCCC)NC2=O` [Compound 141] (H-P[Nle]E[Nle]RCSASVECKQPCLAAIGSIFGKC[Nle]NKKCKCYPR-OH; disulfide 6-27, 12-32, 16-34) the figure was 8.97; with `CC[C@H](C)[C@@H]1NC(=O)[C@H](C)NC(=O)[C@H](CC(=O)O)NC(=O)[C@H](CCCCN)NC(=O)[C@@H]2CSSC[C@@H](C(=O)N[C@@H](Cc3ccc(O)cc3)C(=O)N3CCC[C@H]3C(=O)N[C@@H](CCCNC(=N)N)C(=O)O)NC(=O)[C@H](CCCCN)NC(=O)[C@@H]3CSSC[C@H](NC(=O)[C@H](CCC(=O)O)NC(=O)[C@H](C(C)C)NC(=O)[C@H](CO)NC(=O)[C@H](C)NC(=O)[C@H](CO)NC(=O)[C@@H](NC(=O)[C@H](CCCNC(=N)N)NC(=O)[C@H](CCSC)NC(=O)[C@H](CC(=O)O)NC(=O)[C@H](CCSC)NC(=O)[C@@H](N)CC(N)=O)CSSC[C@H](NC(=O)[C@H](CCCCN)NC(=O)CNC(=O)[C@H](Cc4ccccc4)NC(=O)[C@H]([C@@H](C)CC)NC(=O)[C@H](CO)NC(=O)CNC1=O)C(=O)N[C@@H](CCSC)C(=O)N[C@@H](CC(N)=O)C(=O)N[C@@H](CCCCN)C(=O)N[C@@H](CCCCN)C(=O)N3)C(=O)N[C@@H](CCCCN)C(=O)N[C@@H](CCC(N)=O)C(=O)N[C@@H](CCCCN)C(=O)N2` [Compound 10] (H-NMDMRCSASVECKQKCKDAIGSIFGKCMNKKCKCYPR-OH; disulfide 6-27, 12-32, 16-34), 9.24.
